Measurements taken from patent publication US6040305A, “Compounds useful for inhibition of farnesyl protein transferase” (Schering Corporation, priority 1997, dated 2000).
Where two headings read alike, the source gives them in different places.

Tests used:
[1] = target: T1, farnesyl protein transferase (Homo sapiens, UniProt P49354+P49356); assay: FPT IC50, inhibition of farnesyl protein transferase, in vitro enzyme assay (H-ras); assay type: biochemical
Experimental: (§1) FPT IC50 (inhibition of farnesyl protein transferase, in vitro enzyme assay) and COS Cell IC50 (Cell-Based Assay) were determined following the assay procedures described in WO 95110516, published Apr. 20, 1995. GGPT IC50 (inhibition of geranylgeranyl protein transferase, in vitro enzyme assay), Cell Mat Assay, and anti-tumor activity (in vivo anti-tumor studies) could be determined by the assay procedures described in WO 95/10516. The disclosure of WO 95/10516 is incorporated herein by reference thereto.

[2] = target: T1, farnesyl protein transferase; assay: FPT IC50, inhibition of farnesyl protein transferase (K-ras); assay type: biochemical
Experimental: as §1

COS Cell = COS Cell IC50 (Cell-Based Assay)
Experimental: as §1

Human tumor cells = assay: Soft Agar Assay (anchorage-independent growth); assay type: cell-based; conditions: 10-16 days at 37° C., 5% CO2, MTT staining, read-out: Soft Agar FPT IC50
Experimental: Anchorage-independent growth is a characteristic of tumorigenic cell lines. Human tumor cells are suspended in growth medium containing 0.3% agarose and an indicated concentration of a farnesyl transferase inhibitor. The solution is overlayed onto growth medium solidified with 0.6% agarose containing the same concentration of farnesyl transferase inhibitor as the top layer. After the top layer is solidified, plates are incubated for 10-16 days at 37° C. under 5% CO2 to allow colony outgrowth. After incubation, the colonies are stained by overlaying the agar with a solution of MTT (3-[4,5-dimethyl-thiazol-2-yl]-2,5-diphenyltetrazolium bromide, Thiazolyl blue) (1 mg/mL in PBS). Colonies can be counted and the IC50 's can be determined.

SMILES | IC50 [1] [nM] | IC50 [2] [nM] | IC50 (COS Cell) [nM] | IC50 (Human tumor cells) [nM] | IC50 (Human tumor cells; value given in M) [nM]
CCN(CC)C(=O)CN1CCC(CC(=O)N2CCC([C@H]3c4ncc(Br)cc4CCc4cc(Cl)cc(Br)c43)CC2)CC1 [Compound 4.0] | 4.3 | 46 | 40 | 300 | 
CC(C)(C)OC(=O)CN1CCC(CC(=O)N2CCC([C@H]3c4ncc(Br)cc4CCc4cc(Cl)cc(Br)c43)CC2)CC1 [Compound 11.0] | 28 |  |  |  | 
O=C(CC1CCN(CC(=O)N2CCc3ccccc32)CC1)N1CCC([C@H]2c3ncc(Br)cc3CCc3cc(Cl)cc(Br)c32)CC1 [Compound 10.0] | 5.4 |  | 100 |  | 
O=C(CC1CCN(CC(=O)N2CCOCC2)CC1)N1CCC([C@H]2c3ncc(Br)cc3CCc3cc(Cl)cc(Br)c32)CC1 [Compound 7.0] | 5 | 20 | 25 | 100 | 
O=C(CC1CCN(CC(O)CO)CC1)N1CCC([C@H]2c3ncc(Br)cc3CCc3cc(Cl)cc(Br)c32)CC1 (stereo partly shown) [Compound 20.0] | 2 |  | < 10 | 60 | 
O=C(CN1CCC(CC(=O)N2CCC([C@H]3c4ncc(Br)cc4CCc4cc(Cl)cc(Br)c43)CC2)CC1)N[C@@H]1O[C@H](CO)[C@H](O)[C@H](O)[C@H]1O [Compound 6.0] | 3.4 | 17 | 300 |  | > 500
CON(C)C(=O)CN1CCC(CC(=O)N2CCC([C@H]3c4ncc(Br)cc4CCc4cc(Cl)cc(Br)c43)CC2)CC1 [Compound 3.0] | 3.9 | 26 | 20 | 175 | 
NC(=O)CN1CCC(CC(=O)N2CCC([C@H]3c4ncc(Br)cc4CCc4cc(Cl)cc(Br)c43)CC2)CC1 [Compound 2.0] | 1.8 | 8.6 | 6 | 70 | 
CC(C)(C)OC(=O)N1CCN(C(=O)CN2CCC(CC(=O)N3CCC([C@H]4c5ncc(Br)cc5CCc5cc(Cl)cc(Br)c54)CC3)CC2)CC1 [Compound 8.0] | 18 | 42 | 22 | > 500 | 
O=C(CN1CCC(CC(=O)N2CCC([C@H]3c4ncc(Br)cc4CCc4cc(Cl)cc(Br)c43)CC2)CC1)NCc1ccccc1 [Compound 5.0] | 16 | 51.9 | 840 |  | 
O=C(CC1CCN(CC(=O)N2CCNCC2)CC1)N1CCC([C@H]2c3ncc(Br)cc3CCc3cc(Cl)cc(Br)c32)CC1 [Compound 9.0] | 4.3 | 17 | 120 | 500 | 
